Source: ChEMBL document CHEMBL1201862, “PubChem BioAssay data set” (2004)
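Values below derive from 48-hour exposures of cells grown in 96-well plates, with endpoints linearly interpolated between the two concentrations bracketing the appropriate inhibition level. Here, GI50 denotes the concentration required for 50% inhibition of growth.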 Active and inactive are the calls of the source. No stated cut-off is given here; in the data, active = GI50 up to about 1.1 µM and inactive = higher. Square brackets hold non-standard residues; d marks the D form. Peptide text beside a SMILES is read from it. Phe(4-Cl) = N[CH](Cc1ccc(Cl)cc1)C(=O)O; 2Nal = N[CH](Cc1ccc2ccccc2c1)C(=O)O; 3Pal = N[CH](Cc1cccnc1)C(=O)O

Columns and labels:
Test in all cases: DTP human tumour cell line panel, 48 h
[1] = tested on: NCI-H460
[2] = tested on: SF-268
[3] = tested on: UACC-257
[4] = tested on: MDA-N
[5] = tested on: A498
[6] = tested on: SK-OV-3
[7] = tested on: SW-620
[8] = tested on: IGROV-1
[9] = tested on: TK-10
[10] = tested on: SK-MEL-5
[11] = tested on: HOP-92
[12] = tested on: Malme-3M
[13] = tested on: SNB-19
[14] = tested on: KM12
[15] = tested on: SF-295
[16] = tested on: EKVX
[17] = tested on: HCT-15
[18] = tested on: OVCAR-3
[19] = tested on: CAKI-1

SMILES	GI50 [1]	GI50 [2]	GI50 [3]	GI50 [4]	GI50 [5]	GI50 [6]	GI50 [7]	GI50 [8]	GI50 [9]	GI50 [10]	GI50 [11]	GI50 [12]	GI50 [13]	GI50 [14]	GI50 [15]	GI50 [16]	GI50 [17]	GI50 [18]	GI50 [19]
COC1C(C)OC(OC2CC(C)(O)Cc3cc4c(c(O)c32)C(=O)c2c(O)cc3c(c2C4=O)OC2OC3(C)C(O)C(N(C)C)C2O)C(OC)C1(C)OC (stereo unspecified)	0.00345 µM (active)	0.00484 µM (active)	0.00553 µM (active)	0.00053 µM (active)	0.0256 µM (active)	0.136 µM (active)	0.00457 µM (active)	0.0197 µM (active)	0.00527 µM (active)	0.0237 µM (active)	0.0333 µM (active)	0.0561 µM (active)	0.00378 µM (active)	0.00527 µM (active)	0.0047 µM (active)	0.0409 µM (active)	0.00849 µM	0.00516 µM (active)	–
C/C=C/c1cc2c(cc1O)CC[C@@H]1[C@@H]2CC[C@]2(C)[C@@H](O)CC[C@@H]12	0.0275 µM (active)	0.217 µM (active)	0.132 µM (active)	0.0215 µM (active)	0.146 µM (active)	0.183 µM (active)	0.04 µM (active)	1.96 µM (inactive)	14.3 µM (inactive)	0.0289 µM (active)	–	0.164 µM (active)	0.0695 µM (active)	1.24 µM (inactive)	0.966 µM (active)	5.07 µM (inactive)	0.069 µM	0.0193 µM (active)	0.0144 µM (active)
O=[N+]([O-])c1ccc2c(c1)C(N1CCN(CCO)CC1)Cc1ccc(F)cc1S2 (stereo unspecified)	8.61 µM (inactive)	13.5 µM (inactive)	2.57 µM (inactive)	11 µM (inactive)	11.6 µM (inactive)	17.3 µM (inactive)	4.95 µM (inactive)	3.85 µM (inactive)	13.7 µM (inactive)	1.8 µM (inactive)	–	–	10.7 µM (inactive)	6.64 µM (inactive)	4.14 µM (inactive)	11.2 µM (inactive)	5.93 µM	16.4 µM (inactive)	13.1 µM (inactive)
COc1cc(Cn2c3c(c4c(C(=O)NCCN(C)C)c(O)ccc42)C(=O)c2ccccc2C3=O)cc(OC)c1	1.79 µM (inactive)	1.99 µM (inactive)	1.97 µM (inactive)	1.63 µM (inactive)	1.95 µM (inactive)	1.94 µM (inactive)	–	1.73 µM (inactive)	1.61 µM (inactive)	1.67 µM (inactive)	–	1.54 µM (inactive)	2.51 µM (inactive)	1.58 µM (inactive)	1.92 µM (inactive)	1.82 µM (inactive)	1.88 µM	1.73 µM (inactive)	1.68 µM (inactive)
O=C(Nc1nc2ccc([N+](=O)[O-])cc2[n+]([O-])n1)C(F)(F)F	14.3 µM (inactive)	62.4 µM (inactive)	16.9 µM (inactive)	18.7 µM (inactive)	29.6 µM (inactive)	–	37.6 µM (inactive)	18 µM (inactive)	44.2 µM (inactive)	12.5 µM (inactive)	56.1 µM (inactive)	8.02 µM (inactive)	49.8 µM (inactive)	29.1 µM (inactive)	27.9 µM (inactive)	–	16.6 µM	> 10 µM (inactive)	57.3 µM (inactive)
C=CC[C@H]1[C@H](O[Si](C)(C)C(C)(C)C)C=CC(=O)[C@@H]1CC(=O)N(Cc1ccccc1)Cc1ccccc1	20.6 µM (inactive)	6.55 µM (inactive)	11.5 µM (inactive)	16.4 µM (inactive)	57.5 µM (inactive)	26.1 µM (inactive)	26.7 µM (inactive)	20.8 µM (inactive)	19.2 µM (inactive)	7.83 µM (inactive)	2.09 µM (inactive)	–	29.6 µM (inactive)	15.9 µM (inactive)	15.1 µM (inactive)	12.9 µM (inactive)	9.73 µM	15.1 µM (inactive)	12.4 µM (inactive)
O=C(O)CSC(CC(=O)c1ccc(Cl)cc1)c1ccc(Cl)cc1 (stereo unspecified)	30.8 µM (inactive)	25.1 µM (inactive)	21.2 µM (inactive)	20.6 µM (inactive)	41.6 µM (inactive)	36.5 µM (inactive)	4.17 µM (inactive)	19.7 µM (inactive)	21.4 µM (inactive)	34.4 µM (inactive)	25.8 µM (inactive)	–	42 µM (inactive)	8.07 µM (inactive)	42.4 µM (inactive)	41 µM (inactive)	22.1 µM	20.7 µM (inactive)	35.3 µM (inactive)
c1ccc2sc(C3(N4CCCCCC4)CCCCC3)cc2c1	18.8 µM (inactive)	25.8 µM (inactive)	21.5 µM (inactive)	28.9 µM (inactive)	18.1 µM (inactive)	29 µM (inactive)	18.2 µM (inactive)	36.1 µM (inactive)	22.8 µM (inactive)	17.5 µM (inactive)	17.6 µM (inactive)	–	18.7 µM (inactive)	16.1 µM (inactive)	20.1 µM (inactive)	22.8 µM (inactive)	22.3 µM	16.3 µM (inactive)	36.5 µM (inactive)
CNC(=O)CNC(=O)CCC(=O)OC	> 100 µM (inactive)	> 100 µM (inactive)	–	> 100 µM (inactive)	> 100 µM (inactive)	> 100 µM (inactive)	> 100 µM (inactive)	–	> 100 µM (inactive)	> 100 µM (inactive)	–	–	> 100 µM (inactive)	> 100 µM (inactive)	> 100 µM (inactive)	–	–	> 100 µM (inactive)	> 100 µM (inactive)
Cc1nc2ccc(Cl)cc2c2c1CCN2c1ccccc1	7.74 µM (inactive)	23 µM (inactive)	15.2 µM (inactive)	1.5 µM (inactive)	14.8 µM (inactive)	–	18.6 µM (inactive)	14.3 µM (inactive)	12.7 µM (inactive)	7.53 µM (inactive)	8.59 µM (inactive)	17.4 µM (inactive)	23.5 µM (inactive)	17.5 µM (inactive)	5.47 µM (inactive)	21.2 µM (inactive)	17.3 µM	10.3 µM (inactive)	11.5 µM (inactive)
CC1=NN(c2cccc(Cl)c2)C(=N/c2nc3ccccc3s2)/C1=C\c1ccccc1O	27.1 µM (inactive)	24.2 µM (inactive)	21.9 µM (inactive)	30.4 µM (inactive)	23.2 µM (inactive)	26 µM (inactive)	31.6 µM (inactive)	19.7 µM (inactive)	37.7 µM (inactive)	19.7 µM (inactive)	24.4 µM (inactive)	–	–	38.9 µM (inactive)	30.5 µM (inactive)	64.9 µM (inactive)	27.6 µM	19.2 µM (inactive)	33.7 µM (inactive)
N#Cc1nc(C2SCCCS2)oc1N	–	> 100 µM (inactive)	> 100 µM (inactive)	> 100 µM (inactive)	> 100 µM (inactive)	> 100 µM (inactive)	> 100 µM (inactive)	> 100 µM (inactive)	> 100 µM (inactive)	> 100 µM (inactive)	> 100 µM (inactive)	–	> 100 µM (inactive)	> 100 µM (inactive)	–	> 100 µM (inactive)	> 100 µM	–	> 100 µM (inactive)
CC1(C)OCC(C(O)C2OC(C)(C)OC2C=O)O1 (stereo unspecified)	–	> 100 µM (inactive)	> 100 µM (inactive)	> 100 µM (inactive)	> 100 µM (inactive)	> 100 µM (inactive)	> 100 µM (inactive)	> 100 µM (inactive)	> 100 µM (inactive)	> 100 µM (inactive)	–	> 100 µM (inactive)	> 100 µM (inactive)	> 100 µM (inactive)	> 100 µM (inactive)	> 100 µM (inactive)	> 100 µM	> 100 µM (inactive)	–
O=C(O)C1C2C=CC(O2)C1C(=O)Nc1ccccc1 (stereo unspecified)	–	> 100 µM (inactive)	> 100 µM (inactive)	> 100 µM (inactive)	> 100 µM (inactive)	> 100 µM (inactive)	> 100 µM (inactive)	> 100 µM (inactive)	> 100 µM (inactive)	> 100 µM (inactive)	–	> 100 µM (inactive)	> 100 µM (inactive)	> 100 µM (inactive)	> 100 µM (inactive)	> 100 µM (inactive)	> 100 µM	> 100 µM (inactive)	> 100 µM (inactive)
COC(=O)C1C(C(=O)OC)C1(Br)CBr (stereo unspecified)	> 100 µM (inactive)	28.9 µM (inactive)	> 100 µM (inactive)	63.7 µM (inactive)	> 100 µM (inactive)	> 100 µM (inactive)	31.7 µM (inactive)	30.5 µM (inactive)	> 100 µM (inactive)	> 99.5 µM (inactive)	22.9 µM (inactive)	–	> 100 µM (inactive)	> 100 µM (inactive)	> 100 µM (inactive)	25.1 µM (inactive)	17.9 µM	89.3 µM (inactive)	17.8 µM (inactive)
CC(=O)NC(Cc1ccc2ccccc2c1)C(=O)NC(Cc1ccc(Cl)cc1)C(=O)NC(Cc1cccnc1)C(=O)NC(CO)C(=O)NC(Cc1ccc(O)cc1)C(=O)NC(CCCN=C(N)N)C(=O)NC(CC(C)C)C(=O)NC(CCCN=C(N)N)C(=O)N1CCCC1C(=O)NC(C)C(N)=O (stereo unspecified) (Ac-[2Nal][Phe(4-Cl)][3Pal]SYRLRPA-NH2; configuration not given here)	95.5 µM (inactive)	–	> 100 µM (inactive)	> 100 µM (inactive)	> 100 µM (inactive)	–	> 100 µM (inactive)	> 100 µM (inactive)	> 100 µM (inactive)	94 µM (inactive)	> 100 µM (inactive)	28.8 µM (inactive)	> 100 µM (inactive)	> 100 µM (inactive)	–	> 100 µM (inactive)	> 100 µM	49.9 µM (inactive)	> 100 µM (inactive)
